For this test, the target named is T1, proteasomal β5 subunit (Hc-PBS-5) (Haemonchus contortus, UniProt A0A7I5E5W5).
T1 sequence (A0A7I5E5W5 65-284): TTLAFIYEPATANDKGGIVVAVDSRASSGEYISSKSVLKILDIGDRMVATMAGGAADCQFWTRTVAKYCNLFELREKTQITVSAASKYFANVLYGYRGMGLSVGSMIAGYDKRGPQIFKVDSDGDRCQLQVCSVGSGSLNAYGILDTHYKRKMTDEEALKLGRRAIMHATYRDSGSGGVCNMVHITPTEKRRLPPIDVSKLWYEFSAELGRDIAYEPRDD
It is filed as biochemical.

Results on one compound are retold here after article PMC10015785, “A proteasomal β5 subunit of Haemonchus contortus with a role in the growth, development and life span” (Parasites & Vectors, 2023).

By IC50 is commonly meant the midpoint of a concentration-inhibition curve. Low readings indicate greater potency, high ones weaker potency.

`CC(C)C[C@H](NC(=O)[C@H](Cc1ccccc1)NC(=O)c1cnccn1)B(O)O` [bortezomib]: the IC50 was 622 nM.
